The source of these data is patent publication US10913710B2, “Benzene disulfonamide for the treatment of cancer” (priority 2017, dated 2021).

Structures are written as SMILES. pKd: −log10 of the molar value. Bounds are passed on as bounds.

One may read the Papp A→B as how fast a substance crosses the layer from the apical side. Low values mean slow passage, high ones fast passage. Broadly, the Papp B→A is how fast a substance crosses the layer from the basolateral side. As usually defined, the efflux ratio is a quotient of directional permeabilities that is used to spot active efflux. Broadly, the pKd is −log10 of the Kd, conventionally taken in molar units.

One series concerns Caco-2 cells. Briefly: in vitro. The conditions noted are these: 10 μM, 2 hours, 37° C. As to the method:
(§1) Caco-2 Permeability Assay:
(§2) The compound concentration was measured in the receiver as well as the donor well.
For the compound `c1ccc(Cn2c(-c3ccc(OC[C@H](C4CCNCC4)n4c(-c5ccccc5)nc5ccccc54)cc3)nc3ccccc32)cc1` [Deltarasin, reference compound], the “Caco-2 pH 6.5/7.4 Papp A→B Arith. Mean” value is 1.0 10^−6 cm/s and the “Caco-2 pH 6.5/7.4 Papp B→A Arith. Mean” value is 5.1 10^−6 cm/s.

Turning to `Cc1ccc(-n2nc3c(=O)n(CCCC(=O)NCC(C)c4ccccc4)nc(C)c3c2C)cc1` (centres unmarked) [Deltazinone 1, reference compound], the “Caco-2 pH 6.5/7.4 Papp A→B Arith. Mean” value is 41.1 10^−6 cm/s and the “Caco-2 pH 6.5/7.4 Papp B→A Arith. Mean” value is listed as 25.1 10^−6 cm/s.

Tested on in a further series: not listed separately
Briefly: in vitro. The conditions noted are these: human, Caco-2, pH 6.5. The procedure: as §1, §2
Consider `O=S(=O)(c1ccc(S(=O)(=O)N(Cc2ccc(Cl)cc2)C2CCCC2)cc1)N(Cc1ccccc1)CC1CCNCC1` [Compound 44, N1-Benzyl-N4-(4-chlorobenzyl)-N4-cyclopentyl-N1-(piperidin-4-ylmethyl)benzene-1,4-disulfonamide], for which the apical-to-basolateral permeability (Papp A→B) at 2 h, 10 µM came out at 0.6 ×10⁻⁶ cm/s; the Papp B→A at 2 h, 10 µM was found to be 0.6 ×10⁻⁶ cm/s; the efflux ratio at 2 h, 10 μM is 0.9.

With `CNc1cc(CN(CC2CCNCC2)S(=O)(=O)c2ccc(S(=O)(=O)N(Cc3ccc(Cl)cc3)C3CCCC3)cc2)ccc1C(=O)O` [Compound 21, 4-(((4-(N-(4-chlorobenzyl)-N-cyclopentylsulfamoyl)-N-(piperidin-4-ylmethyl)phenyl)sulfonamido)methyl)-2-(methylamino)benzoic Acid], the Papp A→B at 2 h, 10 µM amounted to 0.4 ×10⁻⁶ cm/s; the Papp B→A at 2 h, 10 µM turned out to be 0.5 ×10⁻⁶ cm/s; the efflux ratio at 2 h, 10 μM is 1.1.

Another series deals with PDEδ (Homo sapiens (Human), UniProt O43924). Briefly: Fluorescence polarization competition binding assay: displacement titration of labeled Atorvastatin probe for KD. The conditions noted are these: fluorescence polarization assay; activity classes; read-out: KD. The procedure: Example D.2: Displacement Titrations of Labeled Atorvastatin-Probe for the Determination of KD Values
Displacement Titrations of Labeled Atorvastatin-Probe for the Determination of KD Values:
The purification was followed by size exclusion gel filtration on a Superdex 75 S26/60 column using buffer A (25 mM Tris-HCl, pH 7.5, 150 mM NaCl and 3 mM DTE).
In the case of `O=S(=O)(c1ccc(S(=O)(=O)N(Cc2ccc(Cl)cc2)C2CCCC2)cc1)N(Cc1ccccc1)CC1CCNCC1` [Compound 44, N1-Benzyl-N4-(4-chlorobenzyl)-N4-cyclopentyl-N1-(piperidin-4-ylmethyl)benzene-1,4-disulfonamide], the negative logarithm of the Kd (pKd) was 7.52 to 9.00.

For the compound `CNc1cc(CN(CC2CCNCC2)S(=O)(=O)c2ccc(S(=O)(=O)N(Cc3ccc(Cl)cc3)C3CCCC3)cc2)ccc1C(=O)O` [Compound 21, 4-(((4-(N-(4-chlorobenzyl)-N-cyclopentylsulfamoyl)-N-(piperidin-4-ylmethyl)phenyl)sulfonamido)methyl)-2-(methylamino)benzoic Acid], the negative logarithm of the Kd (pKd) is 7.52 to 9.00.

Turning to `CN1CCC(CN(Cc2ccccc2)S(=O)(=O)c2ccc(S(=O)(=O)N(Cc3ccc(Cl)cc3)C3CCCC3)cc2)CC1` [Compound 6, N1-benzyl-N4-(4-chlorobenzyl)-N4-cyclopentyl-N1-((1-methylpiperidin-4-yl)methyl)benzene-1,4-disulfonamide], the negative logarithm of the Kd (pKd) is 7.52 to 9.00.

For `O=S(=O)(c1ccc(S(=O)(=O)N(Cc2ccc(Cl)cc2)C2CCCC2)cc1)N(CCO)CC1CCCCC1` [Compound 31], the pKd was 7.00 to 7.52.

Take `CN(Cc1ccccc1)S(=O)(=O)c1ccc(S(=O)(=O)N(Cc2ccccc2)Cc2ccccc2F)cc1` [Compound 96, N1,N4-dibenzyl-N1-(2-fluorobenzyl)-N4-methylbenzene-1,4-disulfonamide]: the negative logarithm of the Kd (pKd) was below 6.00.

Consider `O=S(=O)(NCC1CCOCC1)c1ccc(S(=O)(=O)N(Cc2ccc(Cl)cc2)C2CCCC2)cc1` [Compound 39], for which the pKd is 7.00 to 7.52.

As to `CC1CCCN(S(=O)(=O)c2ccc(S(=O)(=O)N(Cc3ccccc3Cl)CC3CCCO3)cc2)C1` (centres unmarked) [Compound 50, N-(2-chlorobenzyl)-4-((3-methylpiperidin-1-yl)sulfonyl)-N-((tetrahydrofuran-2-yl)methyl)benzenesulfonamide], the negative logarithm of the Kd (pKd) is 7.00 to 7.52.

In the case of `O=CC1Cc2ccccc2N1S(=O)(=O)c1ccc(S(=O)(=O)N(Cc2ccc(Cl)cc2)C2CCCC2)cc1` (centres unmarked) [Compound 38], the pKd was 6.00 to 7.00.

Consider `O=S(=O)(c1ccc(S(=O)(=O)N(Cc2ccc(F)cc2)Cc2ccc(F)cc2)cc1)N1CCCCC1` [Compound 78, N,N-bis(4-fluorobenzyl)-4-(piperidin-1-ylsulfonyl)benzenesulfonamide], for which the pKd was 6.00 to 7.00.

With `O=S(=O)(NCC1CCCO1)c1ccc(S(=O)(=O)N(Cc2ccccc2)Cc2ccccc2F)cc1` (centres unmarked) [Compound 77, N1-benzyl-N1-(2-fluorobenzyl)-N4-((tetrahydrofuran-2-yl)methyl)benzene-1,4-disulfonamide], the pKd was 6.00 to 7.00.

In the case of `CNc1nccc(CN(CC2CCCCC2)S(=O)(=O)c2ccc(S(=O)(=O)N(Cc3ccc(Cl)cc3)C3CCCC3)cc2)n1` [Compound 20, N1-(4-chlorobenzyl)-N4-(cyclohexylmethyl)-N1-cyclopentyl-N4-((2-(methylamino)pyrimidin-4-yl)methyl)benzene-1,4-disulfonamide], the pKd is 7.00 to 7.52.

In the case of `O=S(=O)(c1ccc(S(=O)(=O)N(Cc2ccc(Cl)cc2)C2CCCC2)cc1)N(Cc1cccc(Br)c1)CC1CCCCC1` [Compound 35, N1-(3-bromobenzyl)-N4-(4-chlorobenzyl)-N1-(cyclohexylmethyl)-N4-cyclopentylbenzene-1,4-disulfonamide], the pKd is 7.00 to 7.52.

For `COc1ccc(CN(Cc2ccc3c(c2)OCO3)S(=O)(=O)c2ccc(S(=O)(=O)NC3CCCCC3)cc2)cc1OC` [Compound 75, N1-(benzo[d][1,3]dioxol-5-ylmethyl)-N4-cyclohexyl-N1-(3,4-dimethoxybenzyl)benzene-1,4-disulfonamide], the pKd was below 6.00.

As for `CCN(CC)S(=O)(=O)c1ccc(S(=O)(=O)N(Cc2ccccn2)Cc2ccco2)cc1` [Compound 46, N1,N1-diethyl-N4-(furan-2-ylmethyl)-N4-(pyridin-2-ylmethyl)benzene-1,4-disulfonamide], the negative-log Kd (pKd) is 6.00 to 7.00.

As for `COc1ccc(CN(Cc2ccccc2Cl)S(=O)(=O)c2ccc(S(=O)(=O)N3CCCCC3)cc2)cc1` [Compound 81, N-(2-chlorobenzyl)-N-(4-methoxybenzyl)-4-(piperidin-1-ylsulfonyl)benzenesulfonamide], the pKd is 7.00 to 7.52.

Consider `O=S(=O)(c1ccc(S(=O)(=O)N(Cc2ccc(Cl)cc2)C2CCCC2)cc1)N(CC1CCCCC1)c1ccccc1Br` [Compound 36, N1-(2-bromophenyl)-N4-(4-chlorobenzyl)-N1-(cyclohexylmethyl)-N4-cyclopentylbenzene-1,4-disulfonamide], for which the pKd is 7.00 to 7.52.

Regarding `CN(C)S(=O)(=O)c1ccc(S(=O)(=O)N(Cc2ccc(Cl)cc2)Cc2ccco2)cc1` [Compound 71, N1-(4-chlorobenzyl)-N1-(furan-2-ylmethyl)-N4,N4-dimethylbenzene-1,4-disulfonamide], the negative-log Kd (pKd) was below 6.00.

As for `CC(C)(C)[Si](C)(C)OCCN(CC1CCCCC1)S(=O)(=O)c1ccc(S(=O)(=O)N(Cc2ccc(Cl)cc2)C2CCCC2)cc1` [Compound 28], the negative-log Kd (pKd) is 6.00 to 7.00.

For `O=S(=O)(c1ccc(S(=O)(=O)N(Cc2ccc(Cl)cc2)C2CCCC2)cc1)N(CC1CCCCC1)c1cc(C(F)(F)F)ccc1Br` [Compound 37, N1-(2-bromo-5-(trifluoromethyl)phenyl)-N4-(4-chlorobenzyl)-N1-(cyclohexylmethyl)-N4-cyclopentylbenzene-1,4-disulfonamide], the negative logarithm of the Kd (pKd) is 7.00 to 7.52.

With `CCN(Cc1ccccc1)S(=O)(=O)c1ccc(S(=O)(=O)N(Cc2ccccc2)Cc2ccccc2F)cc1` [Compound 49, N1,N4-dibenzyl-N1-ethyl-N4-(2-fluorobenzyl)benzene-1,4-disulfonamide], the negative logarithm of the Kd (pKd) is 7.52 to 9.00.

In the case of `O=S(=O)(NC1CCCC1)c1ccc(S(=O)(=O)N(Cc2ccc(F)cc2)Cc2ccccc2F)cc1` [Compound 53, N1-cyclopentyl-N4-(2-fluorobenzyl)-N4-(4-fluorobenzyl)benzene-1,4-disulfonamide], the negative-log Kd (pKd) was 6.00 to 7.00.

Regarding `O=S(=O)(c1ccc(S(=O)(=O)N(Cc2ccc(Cl)cc2)C2CCCC2)cc1)N(Cc1cnccn1)CC1CCNCC1` [Compound 11, N1-(4-chlorobenzyl)-N1-cyclopentyl-N4-(piperidin-4-ylmethyl)-N4-(pyrazin-2-ylmethyl)benzene-1,4-disulfonamide], the pKd was 7.52 to 9.00.
